Reference: patent US7217530B2 (priority 2002, dated 2007)

How the values were obtained:
[1] = tested on: PrP^sc
[2] = biological target: recombinant PrP protein (recPrP) (Homo sapiens, UniProt P04156); format: physicochemical

p-sulfonato-3,7-(2-carboxy-methyloxy)-calix-[6]-arene [AML1]
dilution up to which detection of PrP^sc in the sample is possible [1]: 1/32
detection of the prion increased over detection of the same protein in the absence of AML1 ([1]; immunoblotting, FIG. 1, free AML1): at least four
structures observed for recPrP films in the presence of AML ([2]; SPM images, FIGS. 3 and 4): modified sequentially
Average height ([2]; dried film on mica, SPM): 217.7
Maximum height value ([2]; dried film on mica, SPM): 448.9
RMS (root mean square rugosity) ([2]; dried film on mica, SPM): 58.7 nm
Ra (average rugosity) ([2]; dried film on mica, SPM): 48 nm
